Data published in paper PMC7496286, “The Selectivity of Fosfosal for STAT5b over STAT5a is Mediated by Arg566 in the Linker Domain” (Chembiochem, 2020).
Residue numbers refer to the chain shown, from its start.

Columns and labels:
[1] = target: T1, STAT5b Arg566Trp (Homo sapiens, UniProt P51692, R566W); experiment: FP-based competitive binding assay, STAT5b Arg566Trp
T1 construct: His; made in house
T1 sequence (P51692 1-787 R566W): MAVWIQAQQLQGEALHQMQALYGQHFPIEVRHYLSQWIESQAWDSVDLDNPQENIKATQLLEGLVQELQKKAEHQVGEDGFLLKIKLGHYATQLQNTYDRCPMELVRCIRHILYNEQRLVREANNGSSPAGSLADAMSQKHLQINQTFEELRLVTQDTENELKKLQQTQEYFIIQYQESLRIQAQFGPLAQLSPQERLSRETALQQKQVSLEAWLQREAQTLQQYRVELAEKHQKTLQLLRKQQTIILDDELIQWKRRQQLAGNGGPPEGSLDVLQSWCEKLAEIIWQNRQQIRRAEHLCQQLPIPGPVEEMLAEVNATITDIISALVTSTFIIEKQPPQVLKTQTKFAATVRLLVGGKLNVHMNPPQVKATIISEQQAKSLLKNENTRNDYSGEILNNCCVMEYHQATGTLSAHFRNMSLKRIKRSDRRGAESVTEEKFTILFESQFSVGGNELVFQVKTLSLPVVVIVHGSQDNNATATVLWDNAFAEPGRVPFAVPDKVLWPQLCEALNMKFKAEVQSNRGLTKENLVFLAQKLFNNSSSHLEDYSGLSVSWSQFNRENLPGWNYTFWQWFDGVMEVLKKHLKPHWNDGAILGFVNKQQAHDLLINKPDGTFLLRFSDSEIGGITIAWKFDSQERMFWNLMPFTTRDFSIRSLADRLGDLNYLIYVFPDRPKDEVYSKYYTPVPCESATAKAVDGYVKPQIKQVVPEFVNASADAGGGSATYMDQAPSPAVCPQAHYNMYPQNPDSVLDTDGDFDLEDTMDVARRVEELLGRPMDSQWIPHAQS
Method: (§1) Fluorescence polarization assays
(§2) The ability of test compounds to displace 5-carboxyfluorescein-GY(PO3H2)LVLDKW (final concentration: 10 nM) from the SH2 domain of STAT5a/b proteins was analyzed. Proteins […]
(§3) was applied in dilution series comprising the following concentrations: 0.024 – 200 µM […]
(§4) and 0.146 – 600 µM (STAT5b Arg566Glu), respectively. The assays were performed in buffer containing 10 mM Tris, 50 mM NaCl, 1 mM DTT, 1 mM EDTA and 0.1% (v/v) NP-40. Fosfosal was dissolved in DMSO. STAT5a/b proteins and fosfosal were incubated at room temperature for 1 h before adding peptide. Samples were transferred to 384-well microtiter plates and fluorescence polarization was read after a further 1 h incubation time. All measurements were performed in triplicate (n=3), except for STAT5b (n=6) and STAT5a Trp566Arg (n=4). Percent binding was calculated based on a logarithmic curve fit using OriginPro 8G software. IC50 values were converted to Ki values using the published equation.[4] […]
(§5) [4] Z. Nikolovska-Coleska, R. Wang, X. Fang, H. Pan, Y. Tomita, P. Li, P. P. Roller, K.
(§6) Krajewski, N. G. Saito, J. A. Stuckey, S. Wang, Anal. Biochem. 2004, 332, 261-273.

[2] = target: T2, STAT5b Arg566Ala (Homo sapiens, UniProt P51692, R566A); experiment: FP-based competitive binding assay, STAT5b Arg566Ala
T2 construct: His; made in house
T2 sequence (P51692 1-787 R566A): T1 sequence (P51692 1-787 R566W) with W566A
Method: as §1, §2, §3, §4, §5, §6

[3] = target: T3, STAT5a Trp566Arg/Lys644Met (Homo sapiens, UniProt P42229, K644M/W566R); experiment: FP-based competitive binding assay, STAT5a Trp566Arg/Lys644Met
T3 construct: His; made in house
T3 sequence (P42229 1-794 W566R/K644M): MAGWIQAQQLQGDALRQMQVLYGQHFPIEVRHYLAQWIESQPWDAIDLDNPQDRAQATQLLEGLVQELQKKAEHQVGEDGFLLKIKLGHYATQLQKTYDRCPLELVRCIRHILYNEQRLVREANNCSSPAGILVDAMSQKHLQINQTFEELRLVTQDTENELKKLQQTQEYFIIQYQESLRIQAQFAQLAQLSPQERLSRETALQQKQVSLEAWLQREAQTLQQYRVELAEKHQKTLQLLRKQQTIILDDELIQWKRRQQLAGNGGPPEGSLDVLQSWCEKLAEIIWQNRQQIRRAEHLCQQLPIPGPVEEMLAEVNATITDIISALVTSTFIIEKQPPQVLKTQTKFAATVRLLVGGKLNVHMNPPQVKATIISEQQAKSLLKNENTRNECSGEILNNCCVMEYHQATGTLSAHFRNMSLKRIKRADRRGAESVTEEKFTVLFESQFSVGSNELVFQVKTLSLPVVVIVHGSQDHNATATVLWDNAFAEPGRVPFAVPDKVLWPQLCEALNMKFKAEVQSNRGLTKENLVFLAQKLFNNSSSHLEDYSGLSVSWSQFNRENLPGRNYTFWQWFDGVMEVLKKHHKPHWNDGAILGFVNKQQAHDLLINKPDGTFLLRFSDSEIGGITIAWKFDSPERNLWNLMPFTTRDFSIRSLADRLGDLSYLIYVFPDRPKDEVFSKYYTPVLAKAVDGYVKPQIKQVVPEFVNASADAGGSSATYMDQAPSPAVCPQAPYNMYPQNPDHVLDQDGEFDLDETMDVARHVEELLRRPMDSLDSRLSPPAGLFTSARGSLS
Method: as §1, §2, §3, §4, §5, §6

inhibition at 600 µM ([1]; STAT5b Arg566Trp, 600 μM, the highest concentration tested) [%] | inhibition at 600 µM ([2]; STAT5b Arg566Ala, 600 μM) [%] | IC50 ([3]; STAT5a Trp566Arg/Lys644Met) [nM] | Ki ([3]; STAT5a Trp566Arg/Lys644Met, Ki calculated from IC50) [nM] | Compound | Kd [1] [nM] | Kd [2] [nM] | Kd [3] [nM]
– | – | – | – | CC(C)C[C@H](NC(=O)[C@H](Cc1ccc(OP(=O)(O)O)cc1)NC(=O)CNC(=O)c1ccc2c(c1)C(=O)OC21c2ccc(O)cc2Oc2cc(O)ccc21)C(=O)N[C@H](C(=O)N[C@@H](CC(C)C)C(=O)N[C@@H](CC(=O)O)C(=O)N[C@@H](CCCCN)C(=O)N[C@@H](Cc1c[nH]c2ccccc12)C(=O)O)C(C)C [5-carboxyfluorescein-GY(PO3H2)LVLDKW] | 289 | 567 | 80
24 ± 2 | 22 ± 3 | 24500 ± 1400 | 12300 ± 600 | O=C(O)c1ccccc1OP(=O)(O)O [fosfosal, O‐phosphorylated salicylic acid] | – | – | –
